Where “and” joins values, the source holds several entries; their conditions need not be identical. Identical values can stand only once. Like-named read-outs stand apart in the source and are kept apart here.
Assays:
[1] = Clinical study NG100-101: plasma pharmacokinetics of metopimazine and metabolites after a single oral 60 mg dose; assay type: in vivo, healthy adult subjects (human); details: for % Drug‐related material MPZ / % Drug‐related material MPZA: based on AUClast; for % Drug‐related material MPZ / percent of total circulating drug‐related material / % Drug‐related material MPZA: single 60 mg dose; for Tmax / AUC(0-t) / Cmax: both sexes, human, po, 60 mg; for percent of total circulating drug‐related material: rough estimate based on AUClast
Procedure: The clinical study was conducted at Biotrial Rennes, in accordance with the Declaration of Helsinki. The study (NG100‐101) was a double‐blind, placebo‐ controlled, ascending single‐ and multiple‐dose study of the safety, tolerability, and pharmacokinetics of metopimazine administered orally to healthy adult subjects. The study protocol, informed consent form, and appropriate related documents were approved by the institutional review board, and all subjects provided written informed consent prior to participation in the study. […] In the morning, after at least 10 h of fasting overnight, eight healthy adult subjects (male or female aged 18 to 45), were orally administered metopimazine (or a matching placebo). […] Blood samples were collected at the following time points: predose and 0.25, 0.5, 0.75, 1, 1.25, 1.5, 2, 3, 4, 6, 8, 12, 18, and 24 h postdose; plasma samples were obtained by centrifugation of the blood samples. A comprehensive safety and pharmacokinetic analysis was performed for each cohort for the SAD and MAD parts of the study and will be presented elsewhere. A fit‐for‐purpose discovery method was used to analyze 4 subjects from the highest single dosed cohort for the presence of metabolites. Plasma concentrations of metopimazine, metopimazine acid and metopimazine sulfoxide were quantified using LC–MS/MS methods. Venous blood samples (6 ml) for the determination of plasma concentrations of MPZ and metabolites (MPZA and MPZS) were drawn by direct venipuncture or via an intravenous catheter into K2EDTA Vacutainer® tubes. It was important to avoid hemolysis during blood collection. After collection, the blood samples were centrifuged within 60 min, at 3000 rotations per minute for 10 min at 5°C. The resulting plasma was separated into 2 equal aliquots of 1000 µl (aliquots A & B) and transferred to polypropylene tubes, which were labeled, frozen within 120 min of blood collection and stored at –70°C until required for bioanalysis. Immediately prior to bioanalysis, samples were thawed and a 200 µl aliquots were removed and analytes extracted using acetonitrile protein precipitation. The extracted samples were analyzed twice, once for quantification of MPZ and MPZA and again for MPZS quantification as described below. An MRM LC–MS/MS method was developed for MPZ and metopimazine acid (MPZA) in rat, dog, and human plasma. The method was run in reverse phase in positive ion mode. […] D6‐isotopically labeled internal standards were used for each analyte. The following m/z transitions were monitored: metopimazine 446.3 → 141.1 and metopimazine acid 447.2 → 142.1. […] An MRM LC–MS/MS method was developed to look for metopimazine sulfoxide (MPZS) in human plasma. The method was run in reverse phase in positive ion mode. The system was identical to what was described above except that a slightly longer column was used, a Supelco Discovery HS F5 100 × 4.0 mm (3 µm) column (Sigma‐Aldrich). A D6‐isotopically labeled internal standards was used for MPS and the m/z transition monitored was 462.3 → 98.1. A calibration curve was generated for the quantification of MPZS in human plasma. Noncompartmental Pharmacokinetics analysis was performed in Phoenix 64 Winnonlin version 8.1.

[2] = Rat PK study, single oral dose of metopimazine; assay type: in vivo, Sprague Dawley rats; details: Sprague Dawley, plasma, 45 mg/kg metopimazine single oral dose, mean (SD)
Procedure: The pharmacokinetics of metopimazine (parent) and metopimazine acid (metabolite) were evaluated in male and female Sprague Dawley rats following a single oral dose of 45 mg/kg metopimazine (free base). Three animals per sex in each dose group were sampled at each timepoint after administration (0.25, 0.5, 1, 2, 4, 8, 12, and 24 h). The rats (rattus norvegicus) were obtained from Envigo RMS, Inc. and were 2 months old. Animals were weighed prior to each dose administration for the purpose of dose calculation. Whole venous blood samples of approximately 0.5 ml were collected from a peripheral vein of animals for determination of exposure to metopimazine and metopimazine acid. Three animals per sex were sampled at each timepoint. Samples were collected in tubes containing K2EDTA with protease inhibitor cocktail (Sigma, # P8340, at ratio 1:100) and placed on ice until processed for plasma by centrifugation under refrigeration for at least 10 min at 1912 x g. After centrifugation, supernatant was removed and stored frozen in a −70°C freezer until analyzed by LC–MS/MS.
(§1) An MRM LC–MS/MS method was developed for MPZ and metopimazine acid (MPZA) in rat, dog, and human plasma. The method was run in reverse phase in positive ion mode. […] D6‐isotopically labeled internal standards were used for each analyte. The following m/z transitions were monitored: metopimazine 446.3 → 141.1 and metopimazine acid 447.2 → 142.1.
(§2) Noncompartmental Pharmacokinetics analysis was performed in Phoenix 64 Winnonlin version 8.1.

[3] = Dog PK study, single oral dose of metopimazine; assay type: in vivo, beagle dogs; details: beagle, plasma; Dog (male), 10 mg/kg metopimazine single oral dose, mean (SD)
Procedure: The pharmacokinetics of metopimazine (parent) and metopimazine acid (metabolite) were evaluated in three male, beagle dogs following a single oral dose of 10 mg/kg metopimazine (free base). The dogs were obtained from Marshall BioResources. Animals were weighed prior to each dose administration for the purpose of dose calculation. Metopimazine was administered in size 13 gelatin capsules. Whole venous blood samples of approximately 1.0 ml were collected from a peripheral vein of all animals for determination of metopimazine and metopimazine acid. Samples were collected at the following timepoints: 0.25, 0.5, 1, 2, 4, 8, 12, and 24 h after test article administration. All animals were sampled at each timepoint. Samples were collected in tubes containing K2EDTA and placed on ice until processed for plasma by centrifugation under refrigeration for at least 10 min at 1912 x g. After centrifugation, the supernatant was removed and stored frozen in a −70°C freezer until analyzed by LC–MS/MS.
as §1, §2

[4] = Incubation of MPZ with pooled human liver microsomes (disappearance, metabolite formation); assay type: in vitro ADME; details: for Peak area at time 0 / Peak area at time 90 min: metopimazine incubation in human liver microsomes, full scan LC–MS
Procedure: To conduct the metabolic incubation in liver microsomes in the linear range, protein concentration and the reaction time were optimized.
PAR was also used for all positive control compounds.
The degree of disappearance of each analyte was evaluated by comparing the PAR of analyte to IS or concentration in different sampling time points to the PAR of time zero, (t = 0, 100%). The percent of parent remaining values were calculated according to the following equation: %parentremaining=(meanconcentrationorPARateachsamplingtimepoint/meanconcentrationorPARoftimezero)×100

[5] = cited from earlier work
[6] = plasma, individual subjects, single oral 60 mg MPZ dose

Compound | percent of total circulating drug‐related material [1] | AUC(0-inf) ([2]; Rat (female)) [ng·h/mL] | Cmax ([2]; Rat (female)) [ng/mL] | Tmax ([2]; Rat (female)) [h] | AUC(0-inf) ([2]; Rat (male)) [ng·h/mL] | Cmax ([2]; Rat (male)) [ng/mL] | Tmax ([2]; Rat (male)) [h] | AUC(0-inf) [3] [ng·h/mL] | Cmax [3] [ng/mL] | Tmax [3] [h] | Peak area at time 0 [4] | Peak area at time 90 min [4] | further results
CS(=O)(=O)c1ccc2c(c1)N(CCCN1CCC(C(N)=O)CC1)c1ccccc1S2 [MPZ, metopimazine] | less than 10% | 13900 | 1730 | 4 | 8170 | 1080 | 4 | 2600 | 416 | 0.83 | 2373 | 715 | % Drug‐related material MPZ ([1]; individual subjects): 6.5% and 9.9% and 6.2% and 6.8%; % Drug‐related material MPZ ([1]; mean of 4 subjects): 7.4%; Tmax ([1]; plasma, plasma, individual subjects, single oral 60 mg MPZ dose, read-out: MPZ T max): 3 h; AUC(0-t) ([1]; plasma, plasma, mean of 4 subjects, single oral 60 mg MPZ dose, read-out: MPZ AUClast): 172 ng·h/mL; Cmax ([1]; plasma, plasma, mean of 4 subjects, single oral 60 mg MPZ dose, read-out: MPZ C max): 93.9 ng/mL; Tmax ([1]; plasma, plasma, mean of 4 subjects, single oral 60 mg MPZ dose, read-out: MPZ T max): 1.4 h; MPZ AUClast [1, 6]: 111.9 ng‐h/ml and 278.2 ng‐h/ml and 129.4 ng‐h/ml and 167.5 ng‐h/ml; MPZ C max [1, 6]: 38.9 ng/mL and 203 ng/mL and 75.6 ng/mL and 58.2 ng/mL; MPZ T max [1, 6]: 0.75 h and 1 h; percent of parent remaining ([4]; 1 µM MPZ, HLM 0.5 mg/ml protein, NADPH, 60 min): 37.2%; blood–brain barrier penetration [5]: does not penetrate the blood–brain barrier; absolute bioavailability ([5]; humans, 10 mg dose of MPZ): under 20%
CS(=O)(=O)c1ccc2c(c1)N(CCCN1CCC(C(=O)O)CC1)c1ccccc1S2 [MPZA, metopimazine acid] | approximately 90% | 884 | 110 | 3 | 755 | 89 | 4 | 728 | 103 | 2 | 0 | 208 | % Drug‐related material MPZA ([1]; individual subjects): 93.0% and 89.2% and 93.3% and 92.4%; % Drug‐related material MPZA ([1]; mean of 4 subjects): 92.0%; Tmax ([1]; plasma, 4 subjects, single oral 60 mg MPZ dose, read-out: Tmax, range over subjects): 1.25 to 3 h; AUC(0-t) ([1]; plasma, plasma, individual subjects, single oral 60 mg MPZ dose, read-out: MPZA AUClast): 1590 ng·h/mL; AUC(0-t) ([1]; plasma, plasma, mean of 4 subjects, single oral 60 mg MPZ dose, read-out: MPZA AUClast): 2080 ng·h/mL; Cmax ([1]; plasma, plasma, mean of 4 subjects, single oral 60 mg MPZ dose, read-out: MPZA C max): 397 ng/mL; Tmax ([1]; plasma, plasma, mean of 4 subjects, single oral 60 mg MPZ dose, read-out: MPZA T max): 1.8 h; MPZA AUClast [1, 6]: 2506.1 ng‐h/ml and 1941.9 ng‐h/ml and 2265.8 ng‐h/ml; MPZA C max [1, 6]: 241 ng/mL and 601 ng/mL and 357 ng/mL and 390 ng/mL; MPZA T max [1, 6]: 3 h and 1.25 h (2×) and 1.5 h; share of circulating drug‐related material in plasma ([5]; clinical doses of 20 and 50 mg MPZ, single dose, preprandially or postprandially): ≥ 80%; share of circulating drug‐related material based on AUC exposure ([5]; humans): over 90%

Reference: article PMC8929364, “Metopimazine is primarily metabolized by a liver amidase in humans” (Pharmacology Research & Perspectives, 2021)
